Results as given in the OligoGym collection.
Several values for one entry are separate records, joined by “and”; a condition that tells them apart may be missing. Equal values may be shown once. HELM strings list units from the 5' end as sugar, base in round brackets, then linkage (d deoxyribose, r ribose, m 2'-O-methyl, p phosphodiester). Methylation of C is not given here. [moe] = 2'-O-(2-methoxyethyl) (MOE); [cEt] = constrained ethyl (cEt); [sp] = phosphorothioate linkage

Biological target: HBV
Settings: ASO

Substance	target mRNA inhibition (HepG2, 0.07 µM)	other results
RNA1{[moe](G)[sp].[moe](A)[sp].[moe](G)[sp].d(G)[sp].d(C)[sp].d(A)[sp].d(T)[sp].d(A)[sp].d(G)[sp].d(C)[sp].d(A)[sp].d(G)[sp].d(C)[sp].[moe](A)[sp].[moe](G)[sp].[moe](G)}$$$$V2.0		target mRNA inhibition (HepG2, 0.0092593 µM): 4%; target mRNA inhibition (HepG2, 0.0277778 µM): 24%; target mRNA inhibition (HepG2, 0.0833333 µM): 49%; target mRNA inhibition (HepG2, 0.25 µM): 67%
RNA1{[moe](G)[sp].[moe](A)[sp].[moe](G)[sp].d(G)[sp].d(T)[sp].d(G)[sp].d(A)[sp].d(A)[sp].d(G)[sp].d(C)[sp].d(G)[sp].d(A)[sp].[moe](A)[sp].[moe](G)[sp].[moe](T)[sp].[moe](G)}$$$$V2.0	57% and 54%	
RNA1{[moe](G)[sp].[moe](A)[sp].[moe](G)[sp].d(G)[sp].d(T)[sp].d(G)[sp].d(A)[sp].d(A)[sp].d(G)[sp].d(C)[sp].d(G)[sp].d(A)[sp].d(A)[sp].[cEt](G)[sp].[cEt](T)[sp].[cEt](G)}$$$$V2.0	67% and 57%	
RNA1{[moe](G)[sp].[moe](A)[sp].[moe](G)[sp].d(T)[sp].d(T)[sp].d(C)[sp].d(C)[sp].d(G)[sp].d(C)[sp].d(A)[sp].d(G)[sp].d(T)[sp].d(A)[sp].[cEt](T)[sp].[cEt](G)[sp].[cEt](G)}$$$$V2.0	70% and 62%	
RNA1{[moe](G)[sp].[moe](A)[sp].[moe](T)[sp].[moe](G)[sp].[moe](A)[sp].d(G)[sp].d(G)[sp].d(C)[sp].d(A)[sp].d(T)[sp].d(A)[sp].d(G)[sp].d(C)[sp].d(A)[sp].[moe](G)[sp].[moe](C)}$$$$V2.0	45% and 31%	
RNA1{[moe](G)[sp].[moe](A)[sp].d(A)[sp].d(G)[sp].d(T)[sp].d(C)[sp].d(C)[sp].d(A)[sp].d(C)[sp].d(C)[sp].d(A)[sp].[moe](C)[sp].[moe](G)[sp].[moe](A)[sp].[moe](G)[sp].[moe](T)[sp].[moe](C)}$$$$V2.0	66% and 49%	
RNA1{[moe](G)[sp].[moe](A)[sp].d(G)[sp].d(G)[sp].d(C)[sp].d(A)[sp].d(T)[sp].d(A)[sp].d(G)[sp].d(C)[sp].d(A)[sp].[moe](G)[sp].[moe](C)[sp].[moe](A)[sp].[moe](G)[sp].[moe](G)}$$$$V2.0	0%	
RNA1{[moe](G)[sp].[moe](A)[sp].d(G)[sp].d(G)[sp].d(T)[sp].d(G)[sp].d(A)[sp].d(A)[sp].d(G)[sp].d(C)[sp].d(G)[sp].[moe](A)[sp].[moe](A)[sp].[moe](G)[sp].[moe](T)[sp].[moe](G)}$$$$V2.0	51% and 46%	
RNA1{[moe](G)[sp].[moe](C)[sp].[moe](A)[sp].[moe](C)[sp].d(T)[sp].d(A)[sp].d(G)[sp].d(T)[sp].d(A)[sp].d(A)[sp].d(A)[sp].d(C)[sp].d(T)[sp].[moe](G)[sp].[moe](A)[sp].[moe](G)[sp].[moe](C)}$$$$V2.0	55% and 47%	
RNA1{[moe](G)[sp].[moe](C)[sp].[moe](A)[sp].[moe](G)[sp].[moe](A)[sp].[moe](G)[sp].d(G)[sp].d(T)[sp].d(G)[sp].d(A)[sp].d(A)[sp].d(G)[sp].d(C)[sp].d(G)[sp].d(A)[sp].[moe](A)[sp].[moe](G)}$$$$V2.0	65% and 68%	
RNA1{[moe](G)[sp].[moe](C)[sp].[moe](A)[sp].d(G)[sp].d(T)[sp].d(A)[sp].d(T)[sp].d(G)[sp].d(G)[sp].d(A)[sp].d(T)[sp].d(C)[sp].[moe](G)[sp].[moe](G)[sp].[moe](C)[sp].[moe](A)}$$$$V2.0	81% and 72%	
RNA1{[moe](G)[sp].[moe](G)[sp].[moe](A)[sp].[moe](G)[sp].[moe](T)[sp].[moe](T)[sp].d(C)[sp].d(C)[sp].d(G)[sp].d(C)[sp].d(A)[sp].d(G)[sp].d(T)[sp].d(A)[sp].d(T)[sp].[moe](G)[sp].[moe](G)}$$$$V2.0		target mRNA inhibition (HepG2, 0.0092593 µM): 2%; target mRNA inhibition (HepG2, 0.0277778 µM): 25%; target mRNA inhibition (HepG2, 0.0833333 µM): 55%; target mRNA inhibition (HepG2, 0.25 µM): 74%
RNA1{[moe](G)[sp].[moe](G)[sp].[moe](C)[sp].[cEt](A)[sp].[cEt](T)[sp].d(A)[sp].d(G)[sp].d(C)[sp].d(A)[sp].d(G)[sp].d(C)[sp].d(A)[sp].d(G)[sp].[moe](G)[sp].[moe](A)[sp].[moe](T)[sp].[moe](G)}$$$$V2.0		target mRNA inhibition (HepG2, 0.009375 µM): 17%; target mRNA inhibition (HepG2, 0.01875 µM): 32%; target mRNA inhibition (HepG2, 0.0375 µM): 52%; target mRNA inhibition (HepG2, 0.075 µM): 68%; target mRNA inhibition (HepG2, 0.15 µM): 77%; target mRNA inhibition (HepG2, 0.3 µM): 81%
RNA1{[moe](G)[sp].[moe](G)[sp].[moe](C)[sp].[moe](A)[sp].[moe](T)[sp].d(A)[sp].d(G)[sp].d(C)[sp].d(A)[sp].d(G)[sp].d(C)[sp].d(A)[sp].d(G)[sp].d(G)[sp].[moe](A)[sp].[moe](T)}$$$$V2.0	55% and 41%	
RNA1{[moe](G)[sp].[moe](G)[sp].[moe](C)[sp].d(A)[sp].d(T)[sp].d(A)[sp].d(G)[sp].d(C)[sp].d(A)[sp].d(G)[sp].d(C)[sp].d(A)[sp].[moe](G)[sp].[moe](G)[sp].[moe](A)[sp].[moe](T)}$$$$V2.0	54% and 57%	
RNA1{[moe](G)[sp].[moe](G)[sp].[moe](T)[sp].[moe](G)[sp].d(A)[sp].d(A)[sp].d(G)[sp].d(C)[sp].d(G)[sp].d(A)[sp].d(A)[sp].d(G)[sp].d(T)[sp].[moe](G)[sp].[moe](C)[sp].[moe](A)[sp].[moe](C)}$$$$V2.0	63% and 59%	
RNA1{[moe](G)[sp].[moe](G)[sp].[moe](T)[sp].[moe](G)[sp].d(A)[sp].d(A)[sp].d(G)[sp].d(C)[sp].d(G)[sp].d(A)[sp].d(A)[sp].d(G)[sp].d(T)[sp].[moe](G)[sp].[moe](C)[sp].[moe](A)}$$$$V2.0	55% and 59%	
RNA1{[moe](G)[sp].[moe](G)[sp].[moe](T)[sp].d(G)[sp].d(A)[sp].d(A)[sp].d(G)[sp].d(C)[sp].d(G)[sp].d(A)[sp].d(A)[sp].d(G)[sp].[moe](T)[sp].[moe](G)[sp].[moe](C)[sp].[moe](A)[sp].[moe](C)}$$$$V2.0	78% and 64%	
RNA1{[moe](G)[sp].[moe](G)[sp].[moe](T)[sp].d(G)[sp].d(A)[sp].d(A)[sp].d(G)[sp].d(C)[sp].d(G)[sp].d(A)[sp].d(A)[sp].d(G)[sp].[moe](T)[sp].[moe](G)[sp].[moe](C)[sp].[moe](A)}$$$$V2.0	67% and 60%	
RNA1{[moe](G)[sp].[moe](G)[sp].d(A)[sp].d(G)[sp].d(T)[sp].d(T)[sp].d(C)[sp].d(C)[sp].d(G)[sp].d(C)[sp].d(A)[sp].[moe](G)[sp].[moe](T)[sp].[moe](A)[sp].[moe](T)[sp].[moe](G)[sp].[moe](G)}$$$$V2.0	88% and 78%	
RNA1{[moe](G)[sp].[moe](G)[sp].d(A)[sp].d(G)[sp].d(T)[sp].d(T)[sp].d(C)[sp].d(C)[sp].d(G)[sp].d(C)[sp].d(A)[sp].[moe](G)[sp].[moe](T)[sp].[moe](A)[sp].[moe](T)[sp].[moe](G)}$$$$V2.0	67% and 45%	
RNA1{[moe](G)[sp].[moe](G)[sp].d(C)[sp].d(A)[sp].d(T)[sp].d(A)[sp].d(G)[sp].d(C)[sp].d(A)[sp].d(G)[sp].d(C)[sp].[moe](A)[sp].[moe](G)[sp].[moe](G)[sp].[moe](A)[sp].[moe](T)}$$$$V2.0	52% and 40%	
RNA1{[moe](G)[sp].[moe](T)[sp].[moe](G)[sp].d(A)[sp].d(A)[sp].d(G)[sp].d(C)[sp].d(G)[sp].d(A)[sp].d(A)[sp].d(G)[sp].d(T)[sp].d(G)[sp].[cEt](C)[sp].[cEt](A)[sp].[cEt](C)}$$$$V2.0	74% and 84%	target mRNA inhibition (HepG2, 0.0092593 µM): 0%; target mRNA inhibition (HepG2, 0.0277778 µM): 32%; target mRNA inhibition (HepG2, 0.0833333 µM): 68%; target mRNA inhibition (HepG2, 0.25 µM): 86%
RNA1{[moe](G)[sp].[moe](T)[sp].d(T)[sp].d(C)[sp].d(C)[sp].d(G)[sp].d(C)[sp].d(A)[sp].d(G)[sp].d(T)[sp].d(A)[sp].[moe](T)[sp].[moe](G)[sp].[moe](G)[sp].[moe](A)[sp].[moe](T)[sp].[moe](C)}$$$$V2.0	45% and 58%	
RNA1{[moe](T)[sp].[cEt](A)[sp].[cEt](G)[sp].d(G)[sp].d(C)[sp].d(A)[sp].d(G)[sp].d(A)[sp].d(G)[sp].d(G)[sp].d(T)[sp].d(G)[sp].d(A)[sp].[cEt](A)[sp].[cEt](A)[sp].[moe](A)}$$$$V2.0	31% and 28%	
RNA1{[moe](T)[sp].[cEt](C)[sp].[cEt](A)[sp].d(G)[sp].d(C)[sp].d(A)[sp].d(A)[sp].d(A)[sp].d(C)[sp].d(A)[sp].d(C)[sp].d(T)[sp].d(T)[sp].[cEt](G)[sp].[cEt](G)[sp].[moe](C)}$$$$V2.0	67% and 71%	
RNA1{[moe](T)[sp].[cEt](C)[sp].d(C)[sp].d(G)[sp].d(C)[sp].d(A)[sp].d(G)[sp].d(T)[sp].d(A)[sp].d(T)[sp].d(G)[sp].d(G)[sp].[cEt](A)[sp].[moe](T)[sp].[cEt](C)[sp].[moe](G)}$$$$V2.0	85% and 81%	target mRNA inhibition (HepG2, 0.0092593 µM): 33%; target mRNA inhibition (HepG2, 0.0277778 µM): 56%; target mRNA inhibition (HepG2, 0.0833333 µM): 80%; target mRNA inhibition (HepG2, 0.25 µM): 92%
RNA1{[moe](T)[sp].[cEt](G)[sp].[cEt](A)[sp].d(G)[sp].d(G)[sp].d(C)[sp].d(A)[sp].d(T)[sp].d(A)[sp].d(G)[sp].d(C)[sp].d(A)[sp].d(G)[sp].[cEt](C)[sp].[cEt](A)[sp].[moe](G)}$$$$V2.0	68% and 61%	
RNA1{[moe](T)[sp].[moe](C)[sp].[moe](C)[sp].[moe](G)[sp].[moe](C)[sp].d(A)[sp].d(G)[sp].d(T)[sp].d(A)[sp].d(T)[sp].d(G)[sp].d(G)[sp].d(A)[sp].d(T)[sp].[moe](C)[sp].[moe](G)[sp].[moe](G)}$$$$V2.0	77% and 68%	
RNA1{[moe](T)[sp].[moe](C)[sp].[moe](C)[sp].[moe](G)[sp].d(C)[sp].d(A)[sp].d(G)[sp].d(T)[sp].d(A)[sp].d(T)[sp].d(G)[sp].d(G)[sp].d(A)[sp].[moe](T)[sp].[moe](C)[sp].[moe](G)}$$$$V2.0	71% and 73%	
